The structures appear in SMILES notation. Like-named read-outs stand apart in the source and are kept apart here.

The target in data set [1] is T1, rabbit muscle glycogen phosphorylase b (RMGPb) (Oryctolagus cuniculus, UniProt P00489).
T1 sequence (P00489 1-843): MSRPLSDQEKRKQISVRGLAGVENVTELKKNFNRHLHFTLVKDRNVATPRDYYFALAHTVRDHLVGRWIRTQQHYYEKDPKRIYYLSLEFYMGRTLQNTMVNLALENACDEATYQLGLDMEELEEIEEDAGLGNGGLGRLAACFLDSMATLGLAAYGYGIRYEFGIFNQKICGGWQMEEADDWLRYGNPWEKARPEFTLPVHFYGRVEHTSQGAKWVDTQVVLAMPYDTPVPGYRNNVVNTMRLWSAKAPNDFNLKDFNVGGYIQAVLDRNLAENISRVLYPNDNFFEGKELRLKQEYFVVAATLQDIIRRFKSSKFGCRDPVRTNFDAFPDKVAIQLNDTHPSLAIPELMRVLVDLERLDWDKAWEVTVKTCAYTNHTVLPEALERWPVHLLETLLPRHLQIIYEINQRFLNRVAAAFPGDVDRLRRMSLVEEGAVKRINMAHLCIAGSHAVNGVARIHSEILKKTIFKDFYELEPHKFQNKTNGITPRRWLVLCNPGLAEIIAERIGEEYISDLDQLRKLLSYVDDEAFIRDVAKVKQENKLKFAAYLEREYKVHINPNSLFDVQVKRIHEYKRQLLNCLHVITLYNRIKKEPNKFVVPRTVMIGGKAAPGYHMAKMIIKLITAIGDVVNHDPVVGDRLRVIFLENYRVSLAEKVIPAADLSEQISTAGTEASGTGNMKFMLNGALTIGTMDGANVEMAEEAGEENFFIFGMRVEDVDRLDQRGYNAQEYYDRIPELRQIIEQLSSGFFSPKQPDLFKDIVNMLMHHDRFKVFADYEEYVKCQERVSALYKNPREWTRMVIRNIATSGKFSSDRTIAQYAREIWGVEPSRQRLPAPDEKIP
In words: Inhibition of rabbit muscle glycogen phosphorylase b (enzyme kinetic assay). The class given is biochemical. Details: key to Inhibition: N.I.: no inhibition at 625 μM concentration. Particulars: for Inhibition: N.I. = no inhibition at 625 μM concentration; for inhibition of RMGPb (in words): investigated concentration range, max 625 μM. The method, then:
The new compounds were assayed against rabbit muscle glycogen phosphorylase b enzyme (RMGPb) as described earlier and the results are collected in Table 5. The inefficiency of C-glucopyranosyl 1,2,3-triazoles 5 (entries 4–6) as compared to the micromolar inhibition of the N-glucopyranosyl counterparts II in Table 2 came as a surprise, since the size of the heterocycle and the position of the H-bond donor and acceptor sites of the ring must not have been altered by the interchange of the substituents. A comparison of the inhibitory efficiency of N-benzoyl-β-D-gluco-pyranosylamine Ib (entry 1) with its “reversed” counterpart N-phenyl-2,6-anhydro-D-glycero-D-gulo-heptonamide 20 (shown in entry 3) results in a ratio of 38–67 (~53 as an average).

The target of data set [2] is T1, rabbit muscle glycogen phosphorylase b (RMGPb). Particulars: cited from earlier work.

As a reminder, the melting point is the temperature of the solid-liquid transition. `OC[C@H]1O[C@@H](n2cnc(-c3ccccc3)c2)[C@H](O)[C@@H](O)[C@@H]1O` [compound 8, 1-(β-D-Glucopyranosyl)-4-phenyl-1H-imidazole] registered a melting point of 273 to 274 °C. In addition, in data set [1] (RMGPb), the Inhibition entry was “N.I”. In addition, the “inhibition of RMGPb (in words)” value in data set [1] is recorded as “non-inhibitory”.
Take `OC[C@H]1O[C@@H](c2cn(-c3cccc4ccccc34)nn2)[C@H](O)[C@@H](O)[C@@H]1O` [5c, 1-(Naphthalen-1-yl)-4-(β-D-glucopyranosyl)-1H-1,2,3-triazole]: the Inhibition result in data set [1] (RMGPb) is “N.I”.
The same measure, in the same setting: in the case of `OC[C@H]1O[C@@H](c2nnn(-c3ccccc3)n2)[C@H](O)[C@@H](O)[C@@H]1O` [13a, 2-Phenyl-5-(β-D-glucopyranosyl)-2H-tetrazole] it was “N.I”; in that of `Cn1nnnc1[C@@H]1O[C@H](CO)[C@@H](O)[C@H](O)[C@H]1O` [14e, 1-Methyl-5-(β-D-glucopyranosyl)-1H-tetrazole], “N.I”.
Turning to `O=C(Nc1ccccc1)[C@@H]1O[C@H](CO)[C@@H](O)[C@H](O)[C@H]1O` [compound 20, N-phenyl-2,6-anhydro-D-glycero-D-gulo-heptonamide, reference compound], the “average ratio of inhibitory efficiency of Ib to its reversed counterpart 20” value in data set [1] (RMGPb, average of the 38–67 ratio) is recorded as ~ 53. In addition, in data set [1] (RMGPb, from literature Ki values of Ib and 20), the “ratio of inhibitory efficiency of Ib to its reversed counterpart 20” value was 38–67. In data set [2] (RMGPb), the Ki was 5400 µM.
In the case of `OC[C@H]1O[C@@H](c2cn(-c3ccccc3)nn2)[C@H](O)[C@@H](O)[C@@H]1O` [5a, 1-Phenyl-4-(β-D-glucopyranosyl)-1H-1,2,3-triazole], the Inhibition result in data set [1] (RMGPb) is “N.I”. Further, the Ki in data set [1] (RMGPb, inhibition constants of IIb multiplied by the average factor ~53, read-out: predicted inhibition constant) was 7900 to 8500 µM.
`OC[C@H]1O[C@@H](c2nnc(-c3ccc4ccccc4c3)o2)[C@H](O)[C@@H](O)[C@@H]1O` [IIIc]: the “inhibition at 625 μM” value in data set [2] (RMGPb) was 10% at 625 μM [37].
The term IC50 denotes the point on the concentration scale where inhibition reaches its midpoint. With `OC[C@H]1O[C@@H](n2nnc(-c3ccccc3)n2)[C@H](O)[C@@H](O)[C@@H]1O` [18a, 5-Phenyl-2-(β-D-glucopyranosyl)-2H-tetrazole], it took 600 µM to reach half-maximal inhibition in data set [1] (RMGPb) (IC50). The Ki in data set [1] (RMGPb, calculated from IC50 by the Cheng-Prusoff equation, read-out: calculated Ki) was 327 µM. Also, the “inhibition of RMGPb (in words)” value in data set [1] is recorded as “very weak inhibition”.
In the case of `Cn1nnc([C@@H]2O[C@H](CO)[C@@H](O)[C@H](O)[C@H]2O)n1` [13e, 2-Methyl-5-(β-D-glucopyranosyl)-2H-tetrazole], the Inhibition result in data set [1] (RMGPb) is reported as “N.I”.
On to `OC[C@H]1O[C@@H](n2nnnc2-c2ccccc2)[C@H](O)[C@@H](O)[C@@H]1O` [19a, 5-Phenyl-1-(β-D-glucopyranosyl)-1H-tetrazole], for which the Inhibition entry in data set [1] (RMGPb) is given as “N.I”.
With `Cc1nc([C@@H]2O[C@H](CO)[C@@H](O)[C@H](O)[C@H]2O)no1` [IVa], the “inhibition at 625 μM (in words)” value in data set [2] (RMGPb) was “No inh. at 625 μM [38]”.
Regarding `OC[C@H]1OC(c2nnn[nH]2)[C@H](O)[C@@H](O)[C@@H]1O` (some centres unmarked) [VIII, 5-Glucosyltetrazole], in data set [2] (RMGPb), the “inhibition at 625 μM (in words)” value is “No inh. at 625 μM [35]”. Further, the “inhibition of RMGPb (in words)” value in data set [2] is “inactive”.
`OC[C@H]1O[C@@H](c2noc(-c3ccccc3)n2)[C@H](O)[C@@H](O)[C@@H]1O` [IVb]: the “inhibition at 625 μM” value in data set [2] (RMGPb) was 10% at 625 μM [38].
For `Cc1nnn([C@@H]2O[C@H](CO)[C@@H](O)[C@H](O)[C@H]2O)n1` [18e, 5-Methyl-2-(β-D-glucopyranosyl)-2H-tetrazole], the Inhibition result in data set [1] (RMGPb) was “N.I”.
As to `OC[C@H]1O[C@@H](c2nnc(-c3ccccc3)o2)[C@H](O)[C@@H](O)[C@@H]1O` [IIIb], in data set [2] (RMGPb), the “inhibition at 625 μM” value was 10% at 625 μM [37].
`OC[C@H]1O[C@@H](c2cn(-c3ccc4ccccc4c3)nn2)[C@H](O)[C@@H](O)[C@@H]1O` [5b, 1-(Naphthalen-2-yl)-4-(β-D-glucopyranosyl)-1H-1,2,3-triazole] gave a melting point of 224 to 225 °C. In addition, the Inhibition entry in data set [1] (RMGPb) was “N.I”.
As for `Cc1nnc([C@@H]2O[C@H](CO)[C@@H](O)[C@H](O)[C@H]2O)o1` [IIIa], the Ki in data set [2] is 212 µM.
